Measurements as given in patent US20220031680A1, “Donecopride As Neuroprotective Agent In the Treatment of Neurodegenerative Diseases” (priority 2018, published 2022).

Tested on: dopaminergic TH-positive neurons injured with MPP+
Assay: Survival and neurite network of TH neurons in primary mesencephalic culture injured with MPP+
Assay type: cell-based, rat
Conditions: MPP+ 4 μM 48 h; 1 h pre-incubation
Experimental: The aim of the present study was to investigate the neuroprotective effect of MR36014 and MR33583 (at 4 concentrations) on dopaminergic TH-positive neurons injured with MPP^+. The test compounds were pre-incubated for 1 hour before MPP^+ application (4 μM for 48 h). The neuroprotective effect (survival and neurite network) of test compounds was investigated. In addition, the effect on the cytoplasmic alpha-synuclein accumulation was studied.
Rat dopaminergic neurons were cultured as described by Callizot et al. (2019) PLoS One 14:e0215277 and Visanji et al. (2008) FASEB J. 22:2488-2497. Briefly, pregnant female rat (Wistar) of 15 days of gestation were killed using a deep anesthesia with CO2 chamber and a cervical dislocation. The midbrains obtained from 15-day-old rat embryos (Janvier, France) were dissected under a microscope. […]
Midbrains were dissociated by trypsinisation for 20 min at 37° C. […] Viable cells were counted in a Neubauer cytometer using the trypan blue exclusion test. […]
Briefly, on day 6 of culture, the medium was removed, and fresh medium was added, with or without test compounds and with or without MPP^+ for 48 hours diluted in control medium. 6 wells per condition were assessed. […]
Test compounds were tested in 96-well plate (n=6 culture wells per condition). […] The following conditions were assessed: […]

Row | Compound | concentrations improving TH neuron survival | concentrations protecting the neurite network of TH neurons
1 | COc1cc(N)c(F)cc1C(=O)CCC1CCN(CC2CCCC2)CC1 [MR33583] | 100 nM | 
2 | COc1cc(N)c(F)cc1C(=O)CCC1CCN(CC2CCCCCC2)CC1 [MR36014] |  | all investigated doses
